pIC50: −log10 of the molar value. Where two headings read alike, the source gives them in different places.

We go through 16 compounds from patent US6927230B2, “Triazole derivatives” (Fujisawa Pharmaceutical Co., Ltd., priority 2001, dated 2005).

Data set [1] has as its system adjuvant arthritis in Lewis rats. The data set can be described thus: Analgesic activity: effect on adjuvant arthritis in rats (Randall-Selitto pain threshold). The format is in vivo, rat. The note with it: dose 3.2 mg/kg; ratio of mechanical pain threshold of treated vs non-treated arthritic rats, 2 hr after administration; ratio of 1.5 = effective dose.
Another data set has as its system platelet aggregation. Description: Inhibiting activity on aggregation of platelet (collagen-induced, platelet-rich plasma). It is filed as cell-based. The note with it: human platelet-rich plasma, collagen 0.5 μg/mL as agonist; read-out: IC50 (inhibition of platelet aggregation). As for the experimental part:
Blood from healthy human volunteers was collected into plastic vessels containing 3.8% sodium citrate (1/10 volume). The subject had no taken any compounds for at least seven days prior to blood collection. Platelet-rich plasma was obtained from the supernatant fraction of blood after centrifugation at 1200 r.p.m. for 10 min. Platelet-poor plasma was obtained by centrifugation of the remaining blood at 3000 r.p.m. for 10 min.
Platelet aggregation was measured according to the turbidimetric method with an aggregometer (Hema Tracer). In the cuvette, platelet-rich plasma was pre-incubated for 2 min at 37 C after the addition of compounds or vehicle. In order to quantify the inhibitory effects of each compound, the maximum increase in light transmission was determined from the aggregation curve for 7 min after the addition of agonist. We used collagen as agonist of platelet aggregation in this study. The final concentration of collagen was 0.5 μg/mL. The effect of each compound was expressed as percentage inhibition agonist-induced platelet aggregation compared with vehicle treatment. Data are presented as the mean±S.E.M. for six experiments. The IC50 value was obtained by linear regression, and is expressed as the compound concentration required to produce 50% inhibition of agonist-induced platelet aggregation in comparison to vehicle treatment.

The next data set concerns the target T1, COX-I (Homo sapiens, UniProt P23219).
T1 construct: Fresh blood was collected by syringe without anticoagulants from volunteers with consent; from tissue; host or cells: fresh human whole blood from volunteers, no anticoagulant, allowed to clot
The data set can be described thus: Whole blood assay for COX-I (TXB2 production). It is filed as cell-based. As for the experimental part:
Fresh blood was collected by syringe without anticoagulants from volunteers with consent. The subjects had no apparent inflammatory conditions and had not taken any medication for at least 7 days prior to blood collection. 500 μl aliquots of human whole blood were immediately incubated with 2 μl of either DMSO vehicle or a test compound at final concentrations for 1 hr at 37 C. to allow the blood to clot. Appropriate treatments (no incubation) were used as blanks. At the end of the incubation, 5 μl of 250 mM Indomethacin was added to stop the reaction. The blood was centrifuged at 6000×g for 5 min at 4 C to obtain serum. A 100 μl aliquot of serum was mixed with 400 μl methanol for protein precipitation. The supernatant was obtained by centrifuging at 6000×g for 5 min at 4 C and was assayed for TXB2 using an enzyme immunoassay kit according to the manufacturer's procedure. For a test compound, the results were expressed as percent inhibition of TXB2 production relative to control incubations containing DMSO vehicle. The data were analyzed by that a test compound at the indicated concentrations was changed log value and was applied simple linear regression. IC50 value was calculated by least squares method.

In a further data set the target is T2, COX-II (Homo sapiens, UniProt P35354).
T2 construct: lipopolysaccharide for 24 hr at 37 C for induction of COX-2; from tissue; host or cells: fresh heparinized human whole blood from volunteers, LPS-stimulated for 24 hr
T2 sequence (P35354 18-604): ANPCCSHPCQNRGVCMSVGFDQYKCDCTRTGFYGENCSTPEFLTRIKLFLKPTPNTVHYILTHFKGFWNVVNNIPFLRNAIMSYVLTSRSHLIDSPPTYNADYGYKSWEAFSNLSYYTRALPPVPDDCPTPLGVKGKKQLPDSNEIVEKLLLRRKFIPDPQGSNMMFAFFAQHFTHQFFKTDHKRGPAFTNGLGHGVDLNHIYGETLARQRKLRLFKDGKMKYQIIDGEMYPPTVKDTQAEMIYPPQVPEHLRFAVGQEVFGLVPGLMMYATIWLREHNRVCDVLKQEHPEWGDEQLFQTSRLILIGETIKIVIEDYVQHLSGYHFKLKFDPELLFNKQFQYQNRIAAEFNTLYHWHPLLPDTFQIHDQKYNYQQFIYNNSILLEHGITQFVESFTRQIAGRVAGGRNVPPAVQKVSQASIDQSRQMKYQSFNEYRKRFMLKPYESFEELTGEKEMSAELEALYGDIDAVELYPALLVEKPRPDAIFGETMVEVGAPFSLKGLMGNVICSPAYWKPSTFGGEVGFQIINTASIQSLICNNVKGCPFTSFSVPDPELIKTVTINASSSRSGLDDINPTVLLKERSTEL
The data set can be described thus: Whole blood assay for COX-II (LPS-induced PGE2 production). The format is cell-based. The protocol: Fresh blood was collected in heparinized tubes by syringe from volunteers with consent. The subjects had no apparent inflammatory conditions and had not taken any medication for at least 7 days prior to blood collection. 500 μl aliquots of human whole blood were incubated with either 2 μl DMSO vehicle or 2 μl of a test compound at final concentrations for 15 min at 37 C This was followed by incubation of the blood with 10 μl of 5 mg/ml lipopolysaccharide for 24 hr at 37 C for induction of COX-2. Appropriate PBS treatments (no LPS) were used as blanks. At the end of the incubation, the blood was centrifuged at 6000×g for 5 min at 4 C to obtain plasma. A 100 μl aliquot of plasma was mixed with 400 μl methanol for protein precipitation. The supernatant was obtained by centrifuging at 6000×g for 5 min at 4 C and was assayed for PGE2 using a radioimmunoassay kit after conversion of PGE2 to its methyl oximate derivative according to the manufacturer's procedure. For a test compound, the results were expressed as percent inhibition of PGE2 production relative to control incubations containing DMSO vehicle. The data were analyzed by that a test compound at the indicated concentrations was changed log value and was applied simple linear regression. IC50 value was calculated by least squares method.

Setting [2] is: human whole blood, 1 hr at 37 C, TXB2 production, read-out: COX-I IC50.
[3] abbreviates: human whole blood, LPS 24 hr at 37 C, PGE2 production, read-out: COX-II IC50.

T1 sequence (P23219 24-599): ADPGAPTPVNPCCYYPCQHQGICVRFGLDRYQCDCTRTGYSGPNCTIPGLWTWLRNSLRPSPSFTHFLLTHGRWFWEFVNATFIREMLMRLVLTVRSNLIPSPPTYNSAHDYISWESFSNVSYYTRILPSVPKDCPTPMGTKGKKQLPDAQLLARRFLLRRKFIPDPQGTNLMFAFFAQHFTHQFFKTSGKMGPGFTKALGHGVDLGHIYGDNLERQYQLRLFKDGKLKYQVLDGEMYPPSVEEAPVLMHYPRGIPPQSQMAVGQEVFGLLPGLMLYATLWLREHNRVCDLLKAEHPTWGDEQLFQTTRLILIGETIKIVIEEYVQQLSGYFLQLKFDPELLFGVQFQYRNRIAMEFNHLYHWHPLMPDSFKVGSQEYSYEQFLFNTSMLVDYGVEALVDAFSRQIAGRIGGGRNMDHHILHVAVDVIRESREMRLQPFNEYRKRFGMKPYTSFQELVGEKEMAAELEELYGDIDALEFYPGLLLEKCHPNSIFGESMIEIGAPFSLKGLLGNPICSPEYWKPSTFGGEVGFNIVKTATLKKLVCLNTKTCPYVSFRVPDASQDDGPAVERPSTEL

`COc1ccc(-n2nc(OCC(F)(F)F)nc2-c2ccc(OC)nc2)cc1` [14-(3), 2-methoxy-5-(1-(4-methoxyphenyl)-3-(2,2,2-trifluoroethoxy)-1H-1,2,4-triazole-5-yl)pyridine] showed a melting point of 82 to 83 °C.

As to `COc1ccc(-c2nc(OC3CCCCC3)nn2-c2ccc(OC)cc2)cc1` [Example 25, 1,5-bis(4-methoxyphenyl)-3-cyclohexyloxy-1H-1,2,4-triazole], the “The coefficient of analgesic” value in data set [1] is “>=1.5”. For the same compound, the negative-log IC50 (pIC50) with platelet aggregation was above 7.70; at COX-I (setting [2]), above 8.00; on COX-II (setting [3]) it was below 7.00.

Regarding `COc1ccc(-c2nc(OCC(=O)N(C)C)nn2-c2ccc(OC)cc2)cc1` [Example 21, 2-{[1,5-bis(4-methoxyphenyl)-1H-1,2,4-triazol-3-yl]oxy}-N,N-dimethylacetamide], the figures for the pIC50 at COX-I (setting [2]) and at COX-II (setting [3]) were above 8.00 and below 7.00, respectively.

`C#CCOc1nc(-c2ccc(OC)cc2)n(-c2ccc(OC)cc2)n1` [Example 17, 1,5-bis(4-methoxyphenyl)-3-(2-propynyloxy)-1H-1,2,4-triazole] displayed a melting point of 81 to 82 °C. Moreover, on COX-I (setting [2]), the negative-log IC50 (pIC50) is above 8.00. Further, the negative logarithm of the IC50 (pIC50) at COX-II (setting [3]) was below 7.00.

As to `COc1ccc(-c2nc(OCc3ccc(Cl)cc3)nn2-c2ccc(OC)cc2)cc1` [Example 26, 1,5-bis(4-methoxyphenyl)-3-(4-chlorophenylmethoxy)-1H-1,2,4-triazole], the pIC50 was above 8.00 at COX-I (setting [2]) and below 7.00 on COX-II (setting [3]).

As for `COc1ccc(-c2nc(OC(C)C)nn2-c2ccc(OC)cc2)cc1` [Example 23, 1,5-bis(4-methoxyphenyl)-3-(2-propoxy)-1H-1,2,4-triazole], the results for the pIC50 at COX-I (setting [2]) and at COX-II (setting [3]) were above 8.00 and below 7.00, respectively.

For the compound `COc1ccc(-c2nc(C(F)(F)F)nn2-c2ccc(OC)cc2)cc1` [1(2), 1,5-bis(4-methoxyphenyl)-3-(trifluoromethyl)-1H-1,2,4-triazole], the “The coefficient of analgesic” value in data set [1] is on record as “>=1.5”. In addition, the results for the pIC50 in the data set with platelet aggregation, at COX-I (setting [2]) and on COX-II (setting [3]) were above 7.70, above 8.00 and below 7.00, respectively.

In the case of `COc1ccc(-c2nc(OCC(F)(F)F)nn2-c2ccc(OC)nc2)cc1` [15-(4), 2-methoxy-5-(5-(4-methoxyphenyl)-3-(2,2,2-trifluoroethoxy)-1H-1,2,4-triazol-1-yl)pyridine], the melting point fell in the range of 63 to 64 °C. Also, the pIC50 in the data set with platelet aggregation is above 7.70. For the same compound, the pIC50 on COX-I (setting [2]) was above 8.00. Also, the pIC50 on COX-II (setting [3]) is below 7.00.

On to `COc1ccc(-c2nc(SC)nn2-c2ccc(OC)cc2)cc1` [6(4), 1,5-bis(4-methoxyphenyl)-3-(methylthio)-1H-1,2,4-triazole], for which the negative logarithm of the IC50 (pIC50) at COX-I (setting [2]) was above 8.00; on COX-II (setting [3]) it was below 7.00.

As for `COc1ccc(-c2nc(OC)nn2-c2ccc(OC)cc2)cc1` [5(4), 3-Methoxy-1,5-bis(4-methoxyphenyl)-1H-1,2,4-triazole], in data set [1], the “The coefficient of analgesic” value is “>=1.5”. In addition, the pIC50 in the data set on platelet aggregation was above 7.70.

Turning to `COc1ccc(-n2nc(C(F)(F)F)nc2-c2ccc(OC)nc2)cc1` [Example 8, 2-methoxy-5-[1-(4-methoxyphenyl)-3-(trifluoromethyl)-1H-1,2,4-triazol-5-yl]pyridine], the negative-log IC50 (pIC50) on COX-I (setting [2]) was above 8.00; at COX-II (setting [3]) it was below 7.00.

Compound `COc1ccc(-c2nc(OC(=O)N(C)C)nn2-c2ccc(OC)cc2)cc1` [Example 16, 1,5-bis(4-methoxyphenyl)-1H-1,2,4-triazol-3-yl dimethylcarbamate] yielded a melting point of 121 to 123 °C. The negative-log IC50 (pIC50) at COX-I was above 8.00. Moreover, the pIC50 against COX-II was below 7.00.

Regarding `COc1ccc(-c2nc(OCc3cc(C)on3)nn2-c2ccc(OC)cc2)cc1` [Example 19, 1,5-bis(4-methoxyphenyl)-3-[(5-methyl-3-isoxazolyl)methoxy]-1H-1,2,4-triazole], the pIC50 in the data set with platelet aggregation was above 7.70; at COX-I (setting [2]), above 8.00; on COX-II (setting [3]), below 7.00.

As to `COc1ccc(-c2nc(C(F)(F)F)nn2-c2ccc(OC)nc2)cc1` [12(2), 2-methoxy-5-[5-(4-methoxyphenyl)-3-(trifluoromethyl)-1H-1,2,4-triazol-1-yl]pyridine], the figures for the pIC50 at COX-I (setting [2]) and at COX-II (setting [3]) were above 8.00 and below 7.00, respectively.

As for `COc1ccc(-c2nc(OCc3cscn3)nn2-c2ccc(OC)cc2)cc1` [Example 20, 1,5-bis(4-methoxyphenyl)-3-(1,3-thiazol-4-ylmethoxy)-1H-1,2,4-triazole], the results for the pIC50 at COX-I (setting [2]) and on COX-II (setting [3]) were above 8.00 and below 7.00, respectively.

Turning to `COc1ccc(-c2nc(S(C)(=O)=O)nn2-c2ccc(OC)cc2)cc1` [6(6), 1,5-bis(4-methoxyphenyl)-3-(methylsulfonyl)-1H-1,2,4-triazole], the pIC50 on COX-I (setting [2]) was above 8.00; on COX-II (setting [3]) it was below 7.00.

As usually defined, the melting point is the temperature, or range, at which the solid turns liquid. The term pIC50 denotes the negative decadic logarithm of the IC50, by convention in mol/L.
